Data on two molecules can be found in article PMC3951269 (Nature, 2013).

The target of assay [1] is T1, CPTP (GLTPD1) (Homo sapiens, UniProt Q5TA50).
T1 sequence (Q5TA50 1-214): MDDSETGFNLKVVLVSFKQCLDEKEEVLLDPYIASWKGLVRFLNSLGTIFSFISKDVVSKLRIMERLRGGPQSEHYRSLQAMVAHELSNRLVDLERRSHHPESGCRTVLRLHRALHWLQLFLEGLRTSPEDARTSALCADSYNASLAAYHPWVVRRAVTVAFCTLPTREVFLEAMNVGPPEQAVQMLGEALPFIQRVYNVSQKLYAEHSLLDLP
Put plainly: X-ray crystal structure. Conditions: sphingosine-in mode site as C1P. The format is binding.

Assay [2] addresses T1, CPTP (GLTPD1). Put plainly: FRET lipid transfer between POPC vesicles. The format is biochemical. Conditions: 37 °C; labelled compound.

For `CCCCCCCCCCCC(=O)OC[C@H](COP(=O)(O)O)OC(=O)CCCCCCCCCCC` [di12:0-PA], in assay [1], the X-ray crystal structure entry is listed as “PA occupies the same binding site”. Consider `CCCCCCCCCCCCC/C=C/[C@@H](O)[C@H](COP(=O)(O)O)NC(=O)CCCCCCCCC/C=C/c1c2ccccc2cc2ccccc12` [AV-C1P, anthrylvinyl-C1P], for which the transfer rate in assay [2] is on record as ~ 4 C1P molecules/min/protein.
